The values that follow come from patent US20230346961A1, “GLP-1 AND GIP RECEPTOR CO-AGONISTS” (Novo Nordisk A/S, priority 2020, published 2023).

pEC50: −log10 of the molar value. Starred links: 1 amine or outer side, 2 acyl side, 3 side chain; linkers in the order of their positions; H or OH if unused. Non-standard residues stand in square brackets, D forms with d. Residues, ends and D or L forms follow the SMILES beside them. Groups on a side chain read outwards from the residue. *: point of attachment. C18 diacid = O=C(O)CCCCCCCCCCCCCCCCC(=O)*; γGlu = O=C(O)[C@H](CCC(=O)[*:2])N[*:1]; εLys = N[C@@H](CCCCN[*:1])C(=O)[*:2]; Aib = CC(C)(N)C(=O)O

The target in one assay is T1, mouse GLP-1 receptor (Mus musculus, UniProt O35659).
T1 sequence (O35659 22-463): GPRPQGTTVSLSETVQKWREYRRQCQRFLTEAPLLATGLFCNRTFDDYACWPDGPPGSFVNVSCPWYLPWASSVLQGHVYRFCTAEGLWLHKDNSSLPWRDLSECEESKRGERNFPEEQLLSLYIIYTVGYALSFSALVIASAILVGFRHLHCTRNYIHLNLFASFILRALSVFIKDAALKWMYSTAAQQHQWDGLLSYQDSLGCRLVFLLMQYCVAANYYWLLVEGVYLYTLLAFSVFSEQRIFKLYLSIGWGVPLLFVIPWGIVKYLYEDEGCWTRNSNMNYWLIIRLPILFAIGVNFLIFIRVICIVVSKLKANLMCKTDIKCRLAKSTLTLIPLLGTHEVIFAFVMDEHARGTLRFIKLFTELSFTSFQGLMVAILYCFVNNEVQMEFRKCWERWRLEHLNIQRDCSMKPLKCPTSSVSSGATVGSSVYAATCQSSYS

Assay [1] has as its system diet-induced obese (DIO) mice. In words: Pharmacodynamic study in DIO mice: IPGTT (intraperitoneal glucose tolerance test). In kind it is in vivo, C57BL/6J male mice. The following applies: glucose 2 g/kg i.p., mean ± SEM; for iAUC, IPGTT Day 31: 30 days; for iAUC, IPGTT Day 15: 14 days.
Procedure: On the day of the glucose tolerance test, animals were fasted for 4 h. Food was removed and animals were transferred to fresh cages. Animals had access to water but not to food. Tail blood glucose levels were measured, and mice were injected (t=0) with an intra-peritoneal (i.p.) glucose load of 2 g/kg (200 mg/ml glucose solution, dose volume 10 ml/kg). Tail blood glucose levels were measured at times 0, 15, 30, 60, 90, 120 minutes following the i.p. glucose load. Stratification of the animals during the IPGTT was such that for example two mice from group 1 are dosed followed by two mice from group 2, 3, 4, before the next two mice from group 1, 2, 3 etc. were handled. This was to allow for equal distribution of “time of day” throughout all groups.
The subject of assay [2] is diet-induced obese (DIO) mice. In words: Pharmacodynamic study in DIO mice: body weight and food intake. Format: in vivo, C57BL/6J male mice. The following applies: for Absolute BW Day 14 / Change in BW Day 14 / Cumulative food intake Day 14: 14 days; for Cumulative food intake Day 14: n = 2-3. On the procedure:
The purpose of this example is to assess the in vivo effect of select compounds on pharmacodynamic parameters in diet-induced obese (DIO) mice. The animals were treated once daily via subcutaneous injection with a liquid formulation of the test compound to assess effects on body weight, foot intake, and glucose tolerance. For comparison, the known GLP-1R/GIPR co-agonist tirzepatide and a surrogate of the GLP-1R agonist semaglutide were used as references. The semaglutide surrogate has the same pharmacological properties of semaglutide but a slightly modified structure in which the γGlu element of the substituent has been changed from the L-isomer to the D-isomer.
C57BL/6J male mice were purchased from Jackson Laboratories at approximately 8 weeks of age. Mice were group housed and fed a high-fat, high-sugar diet from Research Diets (D12331). Mice were maintained on this diet for 12 weeks prior to initializing the pharmacology studies. Mice exceeding a measured body weight of 50 grams were considered diet-induced obese (DIO) and included in pharmacology studies. Mice were exposed to a controlled 12 h:12 h light:dark cycle at ambient room temperature (22° C.) with ab libitum access to food and water. Studies were approved by and performed according to the guidelines of the Institutional Animal Care and Use Committee of the University of Cincinnati.
Animals were dosed once daily, subcutaneously with either vehicle or test compound. All injections occurred during the middle of the light phase at a fixed volume of 2-5 microliters per gram body weight.
All compounds in the study were formulated in the following buffer: 50 mM phosphate; 70 mM sodium chloride; 0.05% Tween-80, pH 7.4. Dosing solutions were formulated in glass vials and stored at 2-8° C. Dosing solutions were brought to room temperature before dosing and returned to 2-8° C. after dosing.
DIO mice were distributed into groups (n=8 per group) such that statistical variations in the mean and standard deviations of fat mass and body weight were minimized between groups. The animals were grouped to receive treatment as follows: Vehicle, tirzepatide, semaglutide surrogate or a GLP-1/GIP receptor co-agonists as described herein, where vehicle is 50 mM phosphate, 70 mM sodium chloride; 0.05% Tween-80, pH 7.4. The test compounds were dissolved in the vehicle, to stock concentrations of 100 μM, then diluted 50-200 fold in the vehicle to achieve the desired dosing solution concentrations. Animals were dosed subcutaneously once daily in the morning for each day of treatment with dosing solution at a volume of 2-5 μL per gram of body weight as necessary to achieve the desired dose (eg 0.3 nmol/kg, 1.0 nmol/kg, or 3.0 nmol/kg).
Body weight (BW) and food intake were measured immediately prior to dosing each day. The percent change in body was calculated individually for each mouse based on initial body weight prior to the first injection.

The next assay concerns the target human glucagon receptor (Homo sapiens, UniProt P47871). In words: cell-based.
Assay [3] has as its target T2, mouse glucagon-like peptide 1 receptor (mouse, UniProt O35659 22-463).
T2 sequence (looked up): T1 sequence (O35659 22-463)
In words: cell-based or functional assay.

[4] abbreviates: DIO mice, 0.3 nmol/kg s.c. once daily, 30 days, mean ± SEM.
[5] abbreviates: DIO mice, 1.0 nmol/kg s.c. once daily, 30 days, mean ± SEM.
The mark [6] stands for this setting: DIO mice, 3.0 nmol/kg s.c. once daily, 10 days, mean ± SEM, n = 8.
The mark [7] stands for this setting: DIO mice, 3.0 nmol/kg s.c. once daily, 30 days, mean ± SEM.
Setting [8] is: DIO mice, 0.3 nmol/kg s.c. once daily, mean ± SEM.
Setting [9] is: DIO mice, 1.0 nmol/kg s.c. once daily, mean ± SEM.
Where [10] appears, read: DIO mice, 3.0 nmol/kg s.c. once daily, mean ± SEM.

human glucagon receptor, sequence (P47871 26-477): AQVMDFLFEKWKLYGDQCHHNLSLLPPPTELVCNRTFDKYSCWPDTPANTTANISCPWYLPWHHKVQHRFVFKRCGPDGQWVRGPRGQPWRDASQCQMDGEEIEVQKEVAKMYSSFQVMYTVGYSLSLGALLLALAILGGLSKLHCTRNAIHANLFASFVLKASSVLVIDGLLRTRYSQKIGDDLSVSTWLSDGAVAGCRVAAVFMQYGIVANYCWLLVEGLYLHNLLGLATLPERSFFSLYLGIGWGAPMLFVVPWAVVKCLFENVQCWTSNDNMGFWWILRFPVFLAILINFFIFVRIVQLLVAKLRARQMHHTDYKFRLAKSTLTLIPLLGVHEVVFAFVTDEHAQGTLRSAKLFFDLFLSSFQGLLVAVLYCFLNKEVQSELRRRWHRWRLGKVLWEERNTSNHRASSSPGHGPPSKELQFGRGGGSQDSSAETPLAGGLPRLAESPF
Procedure for mouse GLP-1 receptor: The in vitro functional potency is the measure of target receptor activation in a whole cell assay.
In vitro functional potency was determined by measuring the response of the target receptor in a reporter gene assay in individual cell lines. […] When the respective receptor is activated, it results in the production of cAMP, which in turn results in expression of the luciferase protein. When assay incubation is completed, luciferase substrate (luciferin) is added resulting in the enzymatic conversion of luciferin to oxyluciferin and producing bioluminescence. The luminescence is measured as the readout for the assay.
The cells lines used in these assays were BHK cells with BHKTS13 as a parent cell line. The cell lines were derived from a clone containing the CRE luciferase element and were established by further transfection with the respective receptor to obtain the relevant cell line.
The cells were cultured at 37° C. with 5% CO2 in Cell Culture Medium. They were aliquoted and stored in liquid nitrogen. The cells were kept in continuous culture and were seeded out the day before each assay.
GLP-1R and GcgR Cell Culture Medium consisted of DMEM medium with 10% FBS, 500 μg/mL G418, and 300 μg/mL hygromycin. GIPR Cell Culture Medium consisted of DMEM medium with 10% FBS, 400 μg/mL G418, and 300 μg/mL hygromycin. Assay Buffer consisted of DMEM w/o phenol red, 10 mM Hepes, 1×Glutamax, 1% ovalbumin, and 0.1% Pluronic F-68 with the addition of HSA at twice the final assay concentration.
• 1) Cells were plated at 5000 cells/well and incubated overnight in the assay plate. • 2) Cells were washed once in DPBS. • 3) Stocks of the test compounds and reference compounds in concentrations ranging from 100-300 μM were diluted 1:150 in Assay Buffer. Compounds were then diluted 1:10 in column 1 of a 96 deep well dilution plate and then carried across the row creating a 3.5 fold, 12 point dilution curve. • 4) Assay Buffer (50 μl aliquot) with or without HSA was added to each well in the assay plate. • 5) A 50 μl aliquot of compound or blank was transferred from the dilution plate to the assay plate containing the Assay Buffer with or without HSA. • 6) The assay plate was incubated for 3 h in a 5% CO2 incubator at 37° C. 7) The cells were washed once with DPBS. • 8) A 100 μl aliquot of DPBS was added to each well of the assay plate. • 9) A 100 μl aliquot of steadylite plus reagent (light sensitive) was added to each well of the assay plate. • 10) Each assay plate was covered with aluminum foil to protect it from light and shaken at 250 RPM for 30 min at room temperature. • 11) Each assay plate was read in a microtiter plate reader.
The data from the microtiter plate reader was first regressed in an Excel in order to calculate the x-axis, log scale concentrations based on the individual test compound's stock concentration and the dilutions of the assay. […] The software performs a non-linear regression (log(agonist) vs response). A minimum of two replicates was measured for each sample. The reported values are averages of the replicates.

A word on the pEC50: it is −log10 of the EC50, conventionally taken in molar units. Higher therefore signals a low EC50. Regarding `CC[C@H](C)[C@H](NC(=O)[C@H](CO)NC(=O)[C@H](Cc1ccc(O)cc1)NC(=O)[C@H](CC(=O)O)NC(=O)[C@H](CO)NC(=O)[C@@H](NC(=O)[C@H](Cc1ccccc1)NC(=O)[C@@H](NC(=O)CNC(=O)[C@H](CCC(=O)O)NC(=O)C(C)(C)NC(=O)[C@@H](N)Cc1ccc(O)cc1)[C@@H](C)O)[C@@H](C)O)C(=O)N[C@@H](Cc1ccc(O)cc1)C(=O)N[C@@H](CC(C)C)C(=O)N[C@@H](CC(=O)O)C(=O)N[C@@H](CCCCN)C(=O)N[C@@H](CCC(N)=O)C(=O)N[C@@H](C)C(=O)N[C@@H](C)C(=O)NC(C)(C)C(=O)N[C@@H](CCCCNC(=O)[C@@H](N)CCCCNC(=O)[C@@H](N)CCCCNC(=O)CC[C@H](NC(=O)CCCCCCCCCCCCCCCCC(=O)O)C(=O)O)C(=O)N[C@@H](Cc1ccccc1)C(=O)N[C@H](C(=O)N[C@@H](CC(N)=O)C(=O)N[C@@H](Cc1c[nH]c2ccccc12)C(=O)N[C@@H](CC(C)C)C(=O)N[C@@H](CC(C)C)C(=O)N[C@@H](C)C(=O)NCC(=O)NCC(=O)N1CCC[C@H]1C(=O)N[C@@H](CO)C(=O)N[C@@H](CO)C(=O)NCC(=O)N[C@@H](C)C(=O)N1CCC[C@H]1C(=O)N1CCC[C@H]1C(=O)N1CCC[C@H]1C(=O)N[C@@H](CO)C(N)=O)C(C)C` [Compound 9] (H-Y[Aib]EGTFTSDYSIYLDKQAA[Aib]K([εLys-εLys-γGlu-C18 diacid])FVNWLLAGGPSSGAPPPS-NH2; N-terminus assumed), the negative logarithm of the EC50 (pEC50) at mouse GLP-1 receptor was 11.60; on human glucagon receptor it was less than 8.00. For the same compound, the “iAUC, IPGTT Day 31” value in assay [1] (0.3 nmol/kg s.c. once daily) worked out at 14979 ± 3423 mg·min/dL; in assay [1] (1.0 nmol/kg s.c. once daily), 7714 ± 1722 mg·min/dL; in assay [1] (3.0 nmol/kg s.c. once daily), 4073 ± 1764 mg·min/dL. Moreover, the “Absolute BW Day 0” value in assay [2] (DIO mice, 0.3 nmol/kg group, baseline Day 0 (30-day study), mean ± SEM) is 66.5 ± 2.6 grams; in assay [2] (DIO mice, 1.0 nmol/kg group, baseline Day 0 (30-day study), mean ± SEM), 70.0 ± 1.9 grams; in assay [2] (DIO mice, 3.0 nmol/kg group, baseline Day 0 (10-day study), mean ± SEM, n = 8), 63.8 ± 0.8 grams; in assay [2] (DIO mice, 3.0 nmol/kg group, baseline Day 0 (30-day study), mean ± SEM), 65.8 ± 1.4 grams. Moreover, the “Absolute BW Day 31” value was 66.9 ± 3.2 grams in assay [2] (setting [4]), 50.9 ± 2.2 grams in assay [2] (setting [5]) and 40.0 ± 2.4 grams in assay [2] (setting [7]). Also, the “Change in BW Day 31” value is reported as 3.4 ± 1.7% in assay [2] (setting [4]), −23.9 ± 2.6% in assay [2] (setting [5]) and −39.1 ± 3.8% in assay [2] (setting [7]). Further, the “Cumulative food intake Day 31” value in assay [2] (DIO mice, 0.3 nmol/kg s.c. once daily, 30 days, mean ± SEM, n = 2) was 87.4 ± 5.9 grams; in assay [2] (DIO mice, 1.0 nmol/kg s.c. once daily, 30 days, mean ± SEM, n = 2), 60.4 ± 4.5 grams; in assay [2] (DIO mice, 3.0 nmol/kg s.c. once daily, 30 days, mean ± SEM, n = 2), 46.4 ± 6.6 grams. In addition, in assay [2] (DIO mice, 1.0 nmol/kg and 3.0 nmol/kg doses, 30 days), the “Performance compared with semaglutide surrogate in all parameters (in words)” value is reported as “superior performance to semaglutide surrogate”. Besides, the “Cumulative food intake Day 10” value in assay [2] (DIO mice, 3.0 nmol/kg s.c. once daily, 10 days, mean ± SEM, n = 2) was 8.3 ± 1.0 grams. The “Absolute BW Day 10” value in assay [2] (setting [6]) is 51.3 ± 0.9 grams. The “Change in BW Day 10” value in assay [2] (setting [6]) is on record as −19.6 ± 0.7%. Moreover, the “Response on food intake, body weight and glucose tolerance (in words)” value in assay [2] (DIO mice, 0.3, 1.0 or 3.0 nmol/kg s.c. daily for 30 days) is reported as “dose-dependent response”.

Consider “Human GLP-1(7-37) (from UniProt P01275 98-128) (ligand)”, for which the mGLP-1R, CRE Luc EC50 in assay [3] stood at 3.5 pM.

Turning to “Tirzepatide: known GLP-1R/GIPR co-agonist used as reference [reference compound]”, the “iAUC, IPGTT Day 15” value is 13005 ± 2962 mg·min/dL in assay [1] (0.3 nmol/kg s.c. once daily), 10365 ± 3585 mg·min/dL in assay [1] (1.0 nmol/kg s.c. once daily) and 8974 ± 1804 mg·min/dL in assay [1] (3.0 nmol/kg s.c. once daily). Besides, the “Absolute BW Day 0” value in assay [2] (DIO mice, 0.3 nmol/kg group, baseline Day 0 (14-day study), mean ± SEM) was determined as 64.1 ± 1.7 grams; in assay [2] (DIO mice, 1.0 nmol/kg group, baseline Day 0 (14-day study), mean ± SEM) it was 63.5 ± 1.6 grams; in assay [2] (DIO mice, 3.0 nmol/kg group, baseline Day 0 (14-day study), mean ± SEM) it was 63.6 ± 2.5 grams. Besides, the “Absolute BW Day 14” value worked out at 58.2 ± 1.9 grams in assay [2] (setting [8]), 49.8 ± 1.8 grams in assay [2] (setting [9]) and 45.1 ± 2.1 grams in assay [2] (setting [10]). The results for the “Change in BW Day 14” value in assay [2] (setting [8]), in assay [2] (setting [9]) and in assay [2] (setting [10]) were −9.4 ± 1.2%, −21.0 ± 1.2% and −29.0 ± 2.4%, respectively. Also, the “Cumulative food intake Day 14” value came out at 32.3 ± 1.9 grams in assay [2] (setting [8]), 18.4 ± 0.7 grams in assay [2] (setting [9]) and 16.4 ± 2.3 grams in assay [2] (setting [10]).
